Laboratory results reported in patent US20230172959A1, “USE OF NMN FOR THE PREVENTION AND/OR TREATMENT OF A BACK PAIN AND CORRESPONDING COMPOSITIONS” (NUVAMID SA, priority 2020, published 2023).

What was measured:
Assay type in all cases: in vivo, human
[1] = system: chronic lumbalgia; assay: WOMAC questionnaire, 10-day satisfaction study in 12 volunteers
Description: More precisely, the WOMAC score is calculated on the basis of the responses to the questions below: The total score corresponds to the average of the 24 items. The same is true for the score for each area of assessment. A satisfaction study was carried out on a group of 12 volunteers, aged 42±8 years, consisting of seven female and five male subjects. The main objective of this study was to evaluate the level of satisfaction of subjects with regard to the evolution of their lumbalgia (low back pain) during the morning and/or evening application of a composition according to the invention containing 5% by weight of NMN. A composition in the form of an oil-in-water emulsion comprising 5% NMN was formulated as follows, the ingredients being designated by their INCI (International Nomenclature of Cosmetic Ingredients) name: Aqua, Paraffinum liquidum, Cetyl alcohol, Glyceryl stearate, Benzyl PCA, Ceteareth-20, Ceteareth-12, Cetyl Palmitate, Cocoglycerides, Cetearyl alcohol, Sodium Hydroxide, NMN. The composition was prepared according to any method well known to the person skilled in the art. The study took place over 10 days. At baseline, ie upon inclusion (DO), the selected subjects provide their demographic characteristics (age, weight, height), indicate the period of persistence and intensity of the pain on a Visual Analogue Scale, and complete the WOMAC and Lequesne questionnaires. These different scales were used in order to assess by different means the effect of NMN on lumbalgia. On day 10, the volunteers complete the WOMAC questionnaire, the Lequesne questionnaire, the Visual Analogue Scale (VAS) of pain, indicating the perceived improvement in lumbalgia pain relief as measured by the PGI-I index (abbreviation for “Patient Global Improvement Impression”), satisfaction with regard to evolution of the lumbalgia on a Likert scale as well as the ease of application and penetration of the composition, assessment of the texture and odour of the composition, likelihood of re-use thereof in the event of recurrence of a similar pain, and recommendation of use to third parties presenting with pain of similar nature. The PGI-I index is an index that serves as means for evaluating the response to a treatment. The Likert scale is a psychometric tool used for measuring an attitude in individuals, which consists of one or more statements for which the individual responding expresses their degree of agreement or disagreement.

[2] = system: chronic lumbalgia; assay: Perceived improvement (PGI-I index) and satisfaction with evolution of lumbalgia (Likert scale); conditions: end of the study
Description: A satisfaction study was carried out on a group of 12 volunteers, aged 42±8 years, consisting of seven female and five male subjects. The main objective of this study was to evaluate the level of satisfaction of subjects with regard to the evolution of their lumbalgia (low back pain) during the morning and/or evening application of a composition according to the invention containing 5% by weight of NMN. A composition in the form of an oil-in-water emulsion comprising 5% NMN was formulated as follows, the ingredients being designated by their INCI (International Nomenclature of Cosmetic Ingredients) name: Aqua, Paraffinum liquidum, Cetyl alcohol, Glyceryl stearate, Benzyl PCA, Ceteareth-20, Ceteareth-12, Cetyl Palmitate, Cocoglycerides, Cetearyl alcohol, Sodium Hydroxide, NMN. The composition was prepared according to any method well known to the person skilled in the art. On day 10, the volunteers complete the WOMAC questionnaire, the Lequesne questionnaire, the Visual Analogue Scale (VAS) of pain, indicating the perceived improvement in lumbalgia pain relief as measured by the PGI-I index (abbreviation for “Patient Global Improvement Impression”), satisfaction with regard to evolution of the lumbalgia on a Likert scale as well as the ease of application and penetration of the composition, assessment of the texture and odour of the composition, likelihood of re-use thereof in the event of recurrence of a similar pain, and recommendation of use to third parties presenting with pain of similar nature. The PGI-I index is an index that serves as means for evaluating the response to a treatment. The Likert scale is a psychometric tool used for measuring an attitude in individuals, which consists of one or more statements for which the individual responding expresses their degree of agreement or disagreement.

[3] = Adverse side effects and allergies reported by the volunteers; conditions: 10 days topical use of 5% NMN emulsion, 12 volunteers
Description: A satisfaction study was carried out on a group of 12 volunteers, aged 42±8 years, consisting of seven female and five male subjects. The main objective of this study was to evaluate the level of satisfaction of subjects with regard to the evolution of their lumbalgia (low back pain) during the morning and/or evening application of a composition according to the invention containing 5% by weight of NMN.
A composition in the form of an oil-in-water emulsion comprising 5% NMN was formulated as follows, the ingredients being designated by their INCI (International Nomenclature of Cosmetic Ingredients) name: Aqua, Paraffinum liquidum, Cetyl alcohol, Glyceryl stearate, Benzyl PCA, Ceteareth-20, Ceteareth-12, Cetyl Palmitate, Cocoglycerides, Cetearyl alcohol, Sodium Hydroxide, NMN. The composition was prepared according to any method well known to the person skilled in the art.
Over the subsequent 9 day period, each evening the subjects fill in the Visual Analogue Scale of pain, ensuring any discomfort or problems arising or the taking of analgesics are reported therein.

[4] = after 10 days vs baseline, p<0.001

NC(=O)c1ccc[n+]([C@@H]2O[C@H](COP(=O)([O-])O)[C@@H](O)[C@H]2O)c1 (stereo in doubt) [NMN, nicotinamide mononucleotide]
WOMAC "function" criterion ([1]; after 10 days of application, baseline 57.1±15.5, 5% NMN emulsion topical): 30.8±21.8 | total WOMAC score ([1]; after 10 days of application, baseline 58.3±14.8, 5% NMN emulsion topical): 30.9±21.7 | WOMAC "pain" criterion ([1]; after 10 days of application, baseline 59.9±13.1, 5% NMN emulsion topical): 31.0±21.2 | WOMAC "stiffness" criterion ([1]; after 10 days of application, baseline 64.2±21.0, 5% NMN emulsion topical): 31.6±25.0 | decrease of total WOMAC score [1, 4]: 48.6±33.7% | reduction of WOMAC "pain" criterion [1, 4]: 50.1±31.3% | reduction of WOMAC "stiffness" criterion [1, 4]: 52.5±32.9% | reduction of WOMAC "function" criterion ([1]; after 10 days vs baseline, p<0.01): 47.5±35.6% | subjects with improvement characterised as 'considerable' ([2]; 3 subjects): 25.0% | subjects with improvement characterised as 'a lot' ([2]; 4 subjects): 33.3% | subjects with improvement characterised as 'slight' ([2]; 4 subjects): 33.3% | subjects who experienced improvement ([2]; 12 subjects): 91.7% | participants satisfied with the evolution of their chronic lumbalgia ([2]; Likert scale): 91.7% | participants very satisfied with the evolution of their chronic lumbalgia ([2]; Likert scale): 33.3% | adverse side effects [3]: neither any adverse side effects | allergies [3]: nor developed any allergies
